Data reported in patent publication US8183394B2, “Protease inhibitor precursor synthesis” (priority 2005, dated 2012).
pEC50: −log10 of the molar value.

What was measured:
Format in all cases: cell-based
[1] = tested on: HIV mutant strain Mutant 1; assay: cellular assay using MT4-LTR-EGFP cells for anti-viral activity, mutant 1; details: Human immunodeficiency virus 1, 72 h, read-out: pEC50 Mutant 1 (converted)
Protocol: (§1) The compounds were tested in a cellular assay using the MT4-LTR-EGFP cells for anti-viral activity.
(§2) The cellular assay was performed according to the following procedure. HIV- or mock-infected MT4-LTR-EGFP cells were incubated for three days in the presence of various concentrations of the compounds mentioned above. Upon infection, the viral tat protein activates the GFP reporter. At the end of the incubation period, the GFP signal was measured. In the virus control samples (in the absence of any inhibitor) the maximal fluorescent signal was obtained. The inhibitory activity of the compound was monitored on the virus-infected cells and EC50 values were calculated. These values represent the amount of the compound required to protect 50% of the cells from virus infection. The data presented in table 1 contain the pEC50 values, being the negative logarithm of the EC50-values.

[2] = tested on: HIV mutant strain Mutant 2; assay: cellular assay using MT4-LTR-EGFP cells for anti-viral activity, mutant 2; details: Human immunodeficiency virus 1, 72 h, read-out: pEC50 Mutant 2 (converted)
Protocol: as §1, §2

[3] = tested on: HIV mutant strain Mutant 4; assay: cellular assay using MT4-LTR-EGFP cells for anti-viral activity, mutant 4; details: Human immunodeficiency virus 1, 72 h, read-out: pEC50 Mutant 4 (converted)
Protocol: as §1, §2

[4] = tested on: wild type laboratory HIV strain (WT IIIB-2-001); assay: microbe, parasite or virus in culture; details: Human immunodeficiency virus 1, 72 h, MT4-LTR-EGFP cells, three days incubation, GFP signal
Protocol: as §1
as §2, with “In the virus control samples (in the absence of any inhibitor) the maximal fluorescent signal was obtained.” left out

[5] = tested on: HIV mutant strain Mutant 3; assay: cellular assay using MT4-LTR-EGFP cells for anti-viral activity, mutant 3; details: Human immunodeficiency virus 1, 72 h, read-out: pEC50 Mutant 3 (converted)
Protocol: as §1, §2

Compound	EC50 [1]	EC50 [2]	EC50 [3]	pEC50 [4]	EC50 [5]
CC(C)CN(C[C@@H](O)[C@H](Cc1ccccc1)NC(=O)O[C@H]1CO[C@H]2OCC[C@H]21)S(=O)(=O)c1ccc(N)cc1 [TMC 114, (3R,3aS,6aR)-hexahydrofuro[2,3-b]furan-3-yl N-[(1S,2R)-1-benzyl-2-hydroxy-3-(N1-isobutylsulfanilamido)propyl]carbamate, reference compound]	8.13 nM	794 nM	3720 nM		
CC(C)CN(C[C@@H](O)[C@H](Cc1ccccc1)NC(=O)O[C@H]1CO[C@H]2OC[C@H](OCc3ccccc3)[C@H]21)S(=O)(=O)c1ccc(N)cc1 [Compound 13, {3-[(4-amino-benzenesulfonyl)-isobutyl-amino]-1-benzyl-2-hydroxy-propyl}-carbamic acid 4-benzyloxy-hexahydro-furo[2,3-b]furan-3-yl ester]	10 nM	316 nM	2000 nM	8.80	126 nM
